A short description of data set [1]: Biodegradability, tested according to OECD 306. From the text: (§1) Organosilanes for use in the invention include, for example, organosilane hydrides, organosilane alkoxides and organosilane amines. Organosilane compounds have the advantage that they are typically oil-soluble and have the necessary reactivity with water. […] Organosilanes for use in the invention preferably have a biodegradability of at least 60%.

For data set [2], the system named is daphnia. Description: Daphnia toxicity (EC50 daphnia). The data set is classed as in vivo.
Source text: as §1

The subject of data set [3] is algae. Description: Algae toxicity (IC50 algae). The data set is classed as cell-based.
Source text: as §1

Data set [4] is described as follows: Fish toxicity (LC50 fish). The settings on record: in vivo.
Source text: as §1

SMILES strings stand for the structures. Converted amounts (≈) assume the structure as drawn.

This is an account of results in US7964539B2, “Well treatment” (Statoil ASA, priority 2004, dated 2011).

Molecule `CCO[Si](CCCNCCC[Si](OCC)(OCC)OCC)(OCC)OCC` [DYNASYLAN bis-AMEO, bis(triethoxysilylpropyl)amine] came in with a biodegradability in data set [1] of 64.5%. In data set [2], the EC50 (in general, the midpoint of the concentration-response curve) is greater than 200 µg/mL. Also, the IC50 (in general, the concentration needed to halve the response being measured) in data set [3] stood at 125 µg/mL (≈ 294 µM). Besides, the 50% lethal concentration (LC50) (in general, the concentration that kills 50% of the test population) in data set [4] was greater than 200 µg/mL.
With `CCO[Si](CCCN)(OCC)OCC` [DYNASYLAN AMEO, 3-amino-propyltriethoxysilane], the biodegradability in data set [1] was 67%. In data set [2], this molecule came in with an EC50 of 331 µg/mL (≈ 1500 µM). In data set [3], this molecule displayed a concentration for half-maximal inhibition (IC50) of 603 µg/mL (≈ 2720 µM). The molecule further yielded a 50% lethal concentration (LC50) in data set [4] of 934 µg/mL (≈ 4220 µM).
